Legend:
Assay in all cases: KINOMEscan competition binding
Details in all cases: compound 10.0 µM
[1] = tested on: PIK3CA (human), P42336 [M1043I]
[2] = tested on: KIT (human), P10721 [V559D/V654A]
MAP3K4 (human) = MAP3K4 (human) (UniProt Q9Y6R4)
GAK (human) = GAK (human) (UniProt O14976)
MAP4K5 (human) = MAP4K5 (human) (UniProt Q9Y4K4)
[3] = tested on: ABL1 (human), P00519 [E255K]
PKN1 (human) = PKN1 (human) (UniProt Q16512)
DAPK1 (human) = DAPK1 (human) (UniProt P53355)
[4] = target: TYK2 JH2 pseudokinase (human) (UniProt P29597)
MYLK3 (human) = MYLK3 (human) (UniProt Q32MK0)
MYLK3 (human), sequence (Q32MK0 whole entry, looked up): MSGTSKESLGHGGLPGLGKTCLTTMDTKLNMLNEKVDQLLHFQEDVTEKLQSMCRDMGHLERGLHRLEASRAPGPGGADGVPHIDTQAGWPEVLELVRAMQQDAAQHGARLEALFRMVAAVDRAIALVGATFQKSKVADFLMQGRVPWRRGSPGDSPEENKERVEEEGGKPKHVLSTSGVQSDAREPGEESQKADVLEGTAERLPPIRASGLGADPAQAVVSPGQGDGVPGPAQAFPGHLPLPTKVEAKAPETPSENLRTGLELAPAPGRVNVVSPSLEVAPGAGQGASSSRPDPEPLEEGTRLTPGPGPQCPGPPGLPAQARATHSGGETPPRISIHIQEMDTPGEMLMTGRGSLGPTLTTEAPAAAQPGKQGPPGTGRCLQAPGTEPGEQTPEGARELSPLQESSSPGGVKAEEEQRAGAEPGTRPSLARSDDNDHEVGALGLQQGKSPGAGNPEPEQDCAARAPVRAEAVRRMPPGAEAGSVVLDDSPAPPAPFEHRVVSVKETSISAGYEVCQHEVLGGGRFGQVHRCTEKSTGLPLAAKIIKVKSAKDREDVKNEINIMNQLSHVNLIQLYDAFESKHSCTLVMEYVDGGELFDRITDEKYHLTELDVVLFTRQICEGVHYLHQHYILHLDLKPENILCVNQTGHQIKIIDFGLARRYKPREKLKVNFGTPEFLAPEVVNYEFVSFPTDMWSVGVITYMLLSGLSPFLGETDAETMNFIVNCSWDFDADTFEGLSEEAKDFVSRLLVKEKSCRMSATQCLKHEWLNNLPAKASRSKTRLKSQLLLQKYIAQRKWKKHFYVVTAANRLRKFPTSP

GSK3B (human) = GSK3B (human) (UniProt P49841)
RPS6KA4 KD1 (human) = RPS6KA4 KD1 (human) (UniProt O75676)
MYLK2 (human) = MYLK2 (human) (UniProt Q9H1R3)
MAP3K13 (human) = MAP3K13 (human) (UniProt O43283)
NEK6 (human) = NEK6 (human) (UniProt Q9HC98)
EPHA7 (human) = EPHA7 (human) (UniProt Q15375)
PI4KB (human) = PI4KB (human) (UniProt Q9UBF8)
EPHB4 (human) = EPHB4 (human) (UniProt P54760)
PAK7 (human) = PAK7 (human) (UniProt Q9P286)
PIK3CG (human) = PIK3CG (human) (UniProt P48736)
MAP3K9 (human) = MAP3K9 (human) (UniProt P80192)
CSNK2A1 (human) = CSNK2A1 (human) (UniProt P68400)
PDGFRB (human) = PDGFRB (human) (UniProt P09619)
PDGFRB (human), sequence (P09619 whole entry, looked up): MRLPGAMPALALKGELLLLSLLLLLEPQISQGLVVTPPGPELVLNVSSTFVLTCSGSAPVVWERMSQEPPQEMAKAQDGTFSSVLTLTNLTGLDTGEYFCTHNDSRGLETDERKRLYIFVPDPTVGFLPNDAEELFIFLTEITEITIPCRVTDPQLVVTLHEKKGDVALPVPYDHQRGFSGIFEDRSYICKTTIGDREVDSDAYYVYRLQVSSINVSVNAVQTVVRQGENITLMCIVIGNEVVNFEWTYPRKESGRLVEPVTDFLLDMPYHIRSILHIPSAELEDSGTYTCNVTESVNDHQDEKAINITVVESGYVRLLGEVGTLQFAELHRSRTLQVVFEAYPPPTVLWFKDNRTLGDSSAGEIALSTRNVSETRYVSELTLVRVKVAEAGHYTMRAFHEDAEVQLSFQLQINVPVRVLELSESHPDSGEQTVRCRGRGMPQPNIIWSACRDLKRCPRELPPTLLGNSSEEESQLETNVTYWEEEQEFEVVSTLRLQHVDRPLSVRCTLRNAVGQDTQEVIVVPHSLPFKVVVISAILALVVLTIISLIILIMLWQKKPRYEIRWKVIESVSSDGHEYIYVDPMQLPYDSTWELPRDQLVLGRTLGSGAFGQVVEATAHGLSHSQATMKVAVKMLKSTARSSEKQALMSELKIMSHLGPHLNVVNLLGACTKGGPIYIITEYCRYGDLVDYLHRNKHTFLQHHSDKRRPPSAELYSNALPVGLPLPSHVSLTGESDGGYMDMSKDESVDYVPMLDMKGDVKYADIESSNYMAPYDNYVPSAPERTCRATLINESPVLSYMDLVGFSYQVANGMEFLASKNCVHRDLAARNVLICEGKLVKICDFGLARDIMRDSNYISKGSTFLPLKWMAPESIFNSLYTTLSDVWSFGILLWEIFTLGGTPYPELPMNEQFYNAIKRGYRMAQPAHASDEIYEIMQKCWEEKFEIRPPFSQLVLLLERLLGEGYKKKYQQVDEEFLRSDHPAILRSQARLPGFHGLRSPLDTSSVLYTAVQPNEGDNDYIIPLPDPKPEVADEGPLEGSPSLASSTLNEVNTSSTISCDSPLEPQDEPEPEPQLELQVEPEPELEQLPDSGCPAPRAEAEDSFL

PAK3 (human) = PAK3 (human) (UniProt O75914)
AAK1 (human) = AAK1 (human) (UniProt Q2M2I8)
ZAP70 (human) = ZAP70 (human) (UniProt P43403)
LATS2 (human) = LATS2 (human) (UniProt Q9NRM7)
RPS6KA1 KD2 (human) = RPS6KA1 KD2 (human) (UniProt Q15418)
RPS6KA1 KD2 (human), sequence (Q15418 whole entry, looked up): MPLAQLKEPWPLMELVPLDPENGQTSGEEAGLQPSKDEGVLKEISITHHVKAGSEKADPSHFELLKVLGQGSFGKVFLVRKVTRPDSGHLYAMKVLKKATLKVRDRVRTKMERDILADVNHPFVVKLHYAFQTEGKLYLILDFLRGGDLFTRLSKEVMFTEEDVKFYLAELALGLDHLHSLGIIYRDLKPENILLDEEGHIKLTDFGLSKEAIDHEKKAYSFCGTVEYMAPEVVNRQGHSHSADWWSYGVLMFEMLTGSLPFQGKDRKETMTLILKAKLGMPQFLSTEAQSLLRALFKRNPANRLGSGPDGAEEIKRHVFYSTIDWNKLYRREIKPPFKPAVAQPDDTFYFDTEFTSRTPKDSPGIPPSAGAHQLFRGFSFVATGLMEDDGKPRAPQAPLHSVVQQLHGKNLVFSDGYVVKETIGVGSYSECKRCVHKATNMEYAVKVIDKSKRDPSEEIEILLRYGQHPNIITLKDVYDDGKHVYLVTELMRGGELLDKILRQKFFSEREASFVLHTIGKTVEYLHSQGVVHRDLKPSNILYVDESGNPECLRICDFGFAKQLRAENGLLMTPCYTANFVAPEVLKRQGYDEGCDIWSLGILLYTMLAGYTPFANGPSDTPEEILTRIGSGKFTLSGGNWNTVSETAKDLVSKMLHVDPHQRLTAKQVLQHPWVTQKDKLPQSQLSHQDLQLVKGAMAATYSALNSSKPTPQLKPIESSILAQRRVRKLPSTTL

CLK3 (human) = CLK3 (human) (UniProt P49761)
CLK3 (human), sequence (P49761 whole entry, looked up): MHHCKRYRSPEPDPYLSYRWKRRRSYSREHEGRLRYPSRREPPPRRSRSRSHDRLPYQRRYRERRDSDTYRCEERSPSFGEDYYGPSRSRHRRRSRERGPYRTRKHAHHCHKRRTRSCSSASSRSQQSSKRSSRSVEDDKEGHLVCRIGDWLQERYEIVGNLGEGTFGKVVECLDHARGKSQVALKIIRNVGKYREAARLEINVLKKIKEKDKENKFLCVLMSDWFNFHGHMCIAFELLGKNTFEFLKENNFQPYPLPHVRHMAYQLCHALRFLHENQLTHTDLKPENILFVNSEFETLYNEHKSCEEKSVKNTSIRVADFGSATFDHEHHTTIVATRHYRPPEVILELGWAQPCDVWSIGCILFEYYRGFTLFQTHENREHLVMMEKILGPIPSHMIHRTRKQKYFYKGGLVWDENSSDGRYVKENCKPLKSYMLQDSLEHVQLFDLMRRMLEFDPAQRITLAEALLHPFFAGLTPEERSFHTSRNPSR

MAP3K3 (human) = MAP3K3 (human) (UniProt Q99759)
MAP3K3 (human), sequence (Q99759 whole entry, looked up): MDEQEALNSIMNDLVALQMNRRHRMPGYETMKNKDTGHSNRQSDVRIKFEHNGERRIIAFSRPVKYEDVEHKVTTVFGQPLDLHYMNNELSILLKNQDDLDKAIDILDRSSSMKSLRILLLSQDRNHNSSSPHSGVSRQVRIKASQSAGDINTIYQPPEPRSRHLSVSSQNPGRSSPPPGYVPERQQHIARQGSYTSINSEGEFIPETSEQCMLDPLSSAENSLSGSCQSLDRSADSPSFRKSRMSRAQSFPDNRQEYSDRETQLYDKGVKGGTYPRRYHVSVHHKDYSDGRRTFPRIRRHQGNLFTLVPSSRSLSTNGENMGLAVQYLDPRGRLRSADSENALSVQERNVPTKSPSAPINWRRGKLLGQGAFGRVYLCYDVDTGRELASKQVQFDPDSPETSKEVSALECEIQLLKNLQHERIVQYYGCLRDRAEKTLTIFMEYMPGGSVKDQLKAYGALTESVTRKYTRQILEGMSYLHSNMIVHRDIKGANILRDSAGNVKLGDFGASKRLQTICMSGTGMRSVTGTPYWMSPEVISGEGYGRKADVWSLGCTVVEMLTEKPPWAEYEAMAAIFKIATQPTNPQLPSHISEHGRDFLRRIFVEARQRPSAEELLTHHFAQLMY

PIM1 (human) = PIM1 (human) (UniProt P11309)
PIM1 (human), sequence (P11309 whole entry, looked up): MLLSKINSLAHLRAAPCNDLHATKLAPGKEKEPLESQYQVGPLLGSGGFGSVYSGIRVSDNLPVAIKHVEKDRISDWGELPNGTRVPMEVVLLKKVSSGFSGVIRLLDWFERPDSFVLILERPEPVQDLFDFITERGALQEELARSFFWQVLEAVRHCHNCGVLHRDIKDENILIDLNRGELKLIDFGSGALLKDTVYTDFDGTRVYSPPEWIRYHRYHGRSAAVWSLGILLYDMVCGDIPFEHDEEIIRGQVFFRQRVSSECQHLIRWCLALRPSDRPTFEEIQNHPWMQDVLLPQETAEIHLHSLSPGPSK

[5] = target: JAK1 JH1 catalytic (human) (UniProt P23458)
RPS6KA2 KD1 (human) = RPS6KA2 KD1 (human) (UniProt Q15349)
ABL1 (human) = ABL1 (human) (UniProt P00519)
SIK1 (human) = SIK1 (human) (UniProt P57059)
PIK3C2G (human) = PIK3C2G (human) (UniProt O75747)
MAPK15 (human) = MAPK15 (human) (UniProt Q8TD08)
CAMK2G (human) = CAMK2G (human) (UniProt Q13555)
EPHA2 (human) = EPHA2 (human) (UniProt P29317)
KIT (human) = KIT (human) (UniProt P10721)
ERBB2 (human) = ERBB2 (human) (UniProt P04626)

MAP4K5 (human), sequence (Q9Y4K4 whole entry, looked up): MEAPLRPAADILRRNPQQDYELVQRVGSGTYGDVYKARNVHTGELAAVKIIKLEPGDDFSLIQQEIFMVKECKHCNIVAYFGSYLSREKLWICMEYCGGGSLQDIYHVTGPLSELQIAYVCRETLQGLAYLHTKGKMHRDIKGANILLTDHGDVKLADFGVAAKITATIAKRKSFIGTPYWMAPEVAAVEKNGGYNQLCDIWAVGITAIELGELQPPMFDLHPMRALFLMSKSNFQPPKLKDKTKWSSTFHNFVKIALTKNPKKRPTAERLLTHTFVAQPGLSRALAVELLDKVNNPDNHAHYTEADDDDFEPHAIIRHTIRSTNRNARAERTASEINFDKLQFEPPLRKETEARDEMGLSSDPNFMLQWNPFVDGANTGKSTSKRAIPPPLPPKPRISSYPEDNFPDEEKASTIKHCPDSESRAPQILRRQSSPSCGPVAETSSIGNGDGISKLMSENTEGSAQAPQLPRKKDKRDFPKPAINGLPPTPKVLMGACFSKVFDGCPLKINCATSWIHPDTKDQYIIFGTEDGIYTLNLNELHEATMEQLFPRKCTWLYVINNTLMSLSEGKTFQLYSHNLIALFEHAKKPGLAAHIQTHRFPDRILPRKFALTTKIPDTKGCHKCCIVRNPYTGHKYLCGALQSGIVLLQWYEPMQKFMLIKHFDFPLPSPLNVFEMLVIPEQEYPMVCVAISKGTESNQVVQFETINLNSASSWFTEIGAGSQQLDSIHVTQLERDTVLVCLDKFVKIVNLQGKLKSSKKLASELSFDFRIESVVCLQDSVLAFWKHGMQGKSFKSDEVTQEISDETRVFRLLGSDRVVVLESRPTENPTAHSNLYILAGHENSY

kinase still bound, per cent of control [1]: 100% | kinase still bound, per cent of control [2]: 83% | kinase still bound, per cent of control (MAP3K4 (human)): 98% | kinase still bound, per cent of control (GAK (human)): 74% | kinase still bound, per cent of control (MAP4K5 (human)): 83% | kinase still bound, per cent of control [3]: 100% | kinase still bound, per cent of control (PKN1 (human)): 73% | kinase still bound, per cent of control (DAPK1 (human)): 79% | kinase still bound, per cent of control [4]: 32% | kinase still bound, per cent of control (MYLK3 (human)): 90% | kinase still bound, per cent of control (GSK3B (human)): 2% | kinase still bound, per cent of control (RPS6KA4 KD1 (human)): 100% | kinase still bound, per cent of control (MYLK2 (human)): 100% | kinase still bound, per cent of control (MAP3K13 (human)): 84% | kinase still bound, per cent of control (NEK6 (human)): 91% | kinase still bound, per cent of control (EPHA7 (human)): 95% | kinase still bound, per cent of control (PI4KB (human)): 94% | kinase still bound, per cent of control (EPHB4 (human)): 100% | kinase still bound, per cent of control (PAK7 (human)): 75% | kinase still bound, per cent of control (PIK3CG (human)): 93% | kinase still bound, per cent of control (MAP3K9 (human)): 89% | kinase still bound, per cent of control (CSNK2A1 (human)): 35% | kinase still bound, per cent of control (PDGFRB (human)): 82% | kinase still bound, per cent of control (PAK3 (human)): 86% | kinase still bound, per cent of control (AAK1 (human)): 26% | kinase still bound, per cent of control (ZAP70 (human)): 100% | kinase still bound, per cent of control (LATS2 (human)): 100% | kinase still bound, per cent of control (RPS6KA1 KD2 (human)): 53% | kinase still bound, per cent of control (CLK3 (human)): 1.4% | kinase still bound, per cent of control (MAP3K3 (human)): 88% | kinase still bound, per cent of control (PIM1 (human)): 22% | kinase still bound, per cent of control [5]: 90% | kinase still bound, per cent of control (RPS6KA2 KD1 (human)): 73% | kinase still bound, per cent of control (ABL1 (human)): 100% | kinase still bound, per cent of control (SIK1 (human)): 90% | kinase still bound, per cent of control (PIK3C2G (human)): 94% | kinase still bound, per cent of control (CAMK2G (human)): 58% | kinase still bound, per cent of control (EPHA2 (human)): 100% | kinase still bound, per cent of control (KIT (human)): 79% | kinase still bound, per cent of control (ERBB2 (human)): 100%
SMILES: Cn1cc(C2=C(c3ccc(Cl)cc3Cl)C(=O)NC2=O)c2ccccc21
kinase still bound, per cent of control (MAPK15 (human)): 1.7%

Reference: the kinase profiling compilation of Christmann-Franck et al. (2016)
